Values after ≈ are worked out from the molar mass of the structure shown. Where two headings read alike, the source gives them in different places.
Legend:
P493-6 (myc "on") cells = test: Cell Proliferation Assay (72 hrs, Cell Titer Glo or Viacount FACS); assay type: cell-based
Experimental: P493-6 (myc “on”) cells were maintained in growth media (RPMI-1640, 10% FBS, 2 mM glutamine, 100 units/ml Penicillin and 100 μg/ml streptomycin) at 37° C. with 5% CO2. For compound assay, P493-6 cells were plated in 96-well V-bottom plates on the day of compound addition in 50 μl of growth media at a cell density of 200,000 cells/ml (10,000 cells/well). Compounds were serially diluted in 100% DMSO at 200-times the final concentration. Compounds were diluted 100-fold into growth media and then 50 μl of this mixture was added to cell plates making the final concentration of DMSO 0.5%. Cells were incubated with compound for 72 hrs at 37° C. with 5% CO2 and analyzed for antiproliferative effects either by Cell Titer Glo (Promega) or FACS analysis using the Viacount (Millipore) kit on the Guava instrument.

[1] = Caco-2 Permeability Assay (bidirectional); assay type: in vitro ADME; conditions: human; for recovery at 120 min, 1 μM / Papp A→B at 120 min, 1 μM / Papp B→A at 120 min, 1 μM: pH 7.4; for efflux ratio at 120 min, 1 µM / Papp A→B at 120 min, 1 μM / Papp B→A at 120 min, 1 μM / permeability class (Low/High absorption potential) at 120 min, 1 µM: Caco-2; for efflux ratio at 120 min, 1 µM: (Papp B→A)/(Papp A→B); for Papp A→B at 120 min, 1 μM: Direction A→B; for Papp A→B at 120 min, 1 μM / Papp B→A at 120 min, 1 μM: unit not given (thresholds in 10^−6 cm/s); for Papp B→A at 120 min, 1 μM: Direction B→A; for permeability class (Low/High absorption potential) at 120 min, 1 µM: read-out: Permeability Classification
Text: (§1) Caco-2 cells are commonly used in a confluent monolayer on a cell culture insert filter. When cultured in this format and under specific conditions, the cells become differentiated and polarized such that their phenotype, morphologically and functionally resembles the enterocytes lining the small intestine. The cell monolayer provides a physical and biochemical barrier to the passage of small molecules, and is widely used across the pharmaceutical industry as an in vitro model of the human small intestinal mucosa to predict the absorption of orally administered drugs (Hidalgo et al., Gastroenterology, 1989; Artursson, J. Pharm. Sci., 1990). The correlation between the in vitro apparent permeability (P ? app) across Caco-2 monolayers and the in vivo absorption is well established (Artursson et al., Biochem. Biophys. Res. Comm., 1991).
(§2) The present assay was used to determine the bidirectional permeability of the compounds of the invention through Caco-2 cell monolayers. Caco-2 cells were grown in confluent monolayers where the media of both the apical (A) and basolateral (B) sides were at pH 7.4. Compounds were dosed at 1 μM in the presence of 200 μM Lucifer Yellow, on the apical side (A→B) or the basolateral side (B→A) for assessment, in duplicate.
(§3) The absorption potential of compounds were classified as either Low (P-app <1×10^−6 cm/s) or High (P-app >1×10^−6 cm/s).

Caco-2 cell monolayers = test: Caco-2 Permeability Assay (bidirectional); assay type: in vitro ADME
Text: as §1, §2, §3

[2] = Solubility (18 hr vortex mixing at room temperature, filtration, HPLC); assay type: physicochemical; conditions: thermodynamic from solid
Experimental: Ca. 1 mg portions of test article were combined with 120 μL solvent in wells of a 96×2 mL polypropylene plate. […] The contents of all wells were then filtered through a 0.45 μm GHP filter plate to yield clear filtrates. 5 μL of each filtrate was diluted into 100 μL DMF and vortex mixed to yield HPLC samples. Duplicate quantitation standards for each test article were prepared by diluting weighed portions of solid test article in measured volumes of DMF. 2 μL of each HPLC sample and quantitation standard were analyzed by HPLC using the method outlined in Table 5. Dissolved test article concentrations were calculated by peak area ratio against the appropriate quantitation standards.

[3] = molecular target: recombinant form of Glutaminase 1 (GAC) (Homo sapiens, UniProt O94925); test: Recombinant Enzyme Assay (GAC coupled to GDH, NADH absorbance, no preincubation); assay type: biochemical; conditions: no preincubation; read-out: GAC Delta N2 IC50 no preinc
Summary of the method: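 GAC (4 nM) in Tris-HCl pH 8.0 with 150 mM K2HPO4, EDTA, BSA, DTT, plus 4 units/ml GDH and 4 mM ADP, without preincubation. Absorbance at 340 nm was read kinetically for 15 min at 20° C. Slopes (mAU/min) were compared with DMSO-only and control-compound wells on the same plate.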

[4] = 50 mM citrate buffer pH 2.3, 20 °C, aqueous buffer, 50 mM Cit pH 2.3, room temperature
[5] = 50 mM citrate buffer pH 3.3, 20 °C, aqueous buffer, 50 mM Cit pH 3.3, room temperature
[6] = 50 mM citrate buffer pH 4.4, 20 °C, aqueous buffer, 50 mM Cit pH 4.4, room temperature
[7] = 50 mM citrate buffer pH 5.4, 20 °C, aqueous buffer, 50 mM Cit pH 5.4, room temperature
[8] = 20 °C, aqueous buffer, PBS, room temperature
[9] = 20 °C, aqueous with cosolvent or surfactant or cyclodextrin, 10% CrEL/50 mM cit, room temperature
[10] = 20 °C, aqueous with cosolvent or surfactant or cyclodextrin, 10% PS80/50 mM cit, room temperature
[11] = 20 °C, aqueous with cosolvent or surfactant or cyclodextrin, 20% HPBCD/50 mM cit, room temperature
[12] = 20 °C, aqueous with cosolvent or surfactant or cyclodextrin, 20% SBECD/50 mM cit, room temperature
[13] = 20 °C, oil or lipid, Capryol 90, room temperature
[14] = 20 °C, oil or lipid, Capryol PGMC, room temperature
[15] = 20 °C, oil or lipid, Labrasol, room temperature
[16] = 20 °C, oil or lipid, canola oil, room temperature
[17] = 20 °C, organic solvent or mixture, EtOH, room temperature
[18] = 20 °C, organic solvent or mixture, PEG400, room temperature
[19] = 20 °C, organic solvent or mixture, PG, room temperature
[20] = 20 °C, pH 1, simulated gastric fluid, 0.1M HCl, room temperature
[21] = 20 °C, pH 13, aqueous buffer, 0.1M NaOH, room temperature
[22] = 20 °C, saline or isotonic, 0.9% NaCl, room temperature
[23] = water, room temperature (ca. 20 C)

Compound	recovery at 120 min, 1 μM ([1]; Caco-2, pH 7.4, Direction A→B) [%]	recovery at 120 min, 1 μM ([1]; Caco-2, pH 7.4, Direction B→A) [%]	efflux ratio at 120 min, 1 µM [1]	Papp A→B at 120 min, 1 μM [1] [×10⁻⁶ cm/s]	Papp B→A at 120 min, 1 μM [1] [×10⁻⁶ cm/s]	permeability class (Low/High absorption potential) at 120 min, 1 µM [1] [×10⁻⁶ cm/s]	solubility at 18 h [2, 4] [µg/mL]	solubility at 18 h [2, 5] [µg/mL]	solubility at 18 h [2, 6] [µg/mL]	solubility at 18 h [2, 7] [µg/mL]	solubility at 18 h [2, 8] [µg/mL]	solubility at 18 h [2, 9] [µg/mL]	solubility at 18 h [2, 10] [µg/mL]	solubility at 18 h [2, 11] [µg/mL]	solubility at 18 h [2, 12] [µg/mL]	solubility at 18 h [2, 13] [µg/mL]	solubility at 18 h [2, 14] [µg/mL]	solubility at 18 h [2, 15] [µg/mL]	solubility at 18 h [2, 16] [µg/mL]	Significant Efflux (Caco-2 cell monolayers)	also measured
O=C(Nc1nnc(CCCCc2nnc(NC(=O)C3COc4ccccc43)s2)s1)C1COc2ccccc21 (stereo not shown) [Compound 135]	–	–	–	–	–	–	–	–	–	–	–	–	–	–	–	–	–	–	–	–	IC50 (P493-6 (myc "on") cells; read-out: Cell prolif P493 72h IC50, P493-6 cells, 72 h): 0.49 µM
CC(C)(C)OC(=O)Nc1ccc(CC(=O)Cc2nnc(CCCCc3nnc(NC(=O)Cc4ccc(NC(=O)OC(C)(C)C)cc4)s3)s2)cc1 [Compound 192]	–	–	–	–	–	–	–	–	–	–	–	–	–	–	–	–	–	–	–	–	IC50 [3]: > 20 µM; IC50 (P493-6 (myc "on") cells; P493-6, 72 h, read-out: Cell prolif P493 72h IC50, P493-6 cells, 72 h): 0.03 µM
O=C(Cc1ccccc1)Nc1ccc(CCCCc2nnc(NC(=O)Cc3ccccc3)s2)nn1 [Compound 295]	89	96	7.3	8.17	59.8	> 1	< 2	< 2	< 2	< 2	< 2	55 (≈ 113 µM)	27 (≈ 55.5 µM)	167 (≈ 343 µM)	90 (≈ 185 µM)	215 (≈ 442 µM)	1540 (≈ 3160 µM)	918 (≈ 1890 µM)	< 2	Yes (efflux ratios being significant when greater than or equal to 3 when the Papp (B→A) was greater than or equal to 1×10^−6 cm/s)	solubility at 18 h [2, 17]: 83 µg/mL (≈ 171 µM); solubility at 18 h [2, 18]: 1640 µg/mL (≈ 3380 µM); solubility at 18 h [2, 19]: 234 µg/mL (≈ 481 µM); solubility at 18 h [2, 20]: 3 µg/mL (≈ 6.17 µM); solubility at 18 h [2, 21]: 268 µg/mL (≈ 551 µM); solubility at 18 h [2, 22]: < 2 µg/mL; solubility at 18 h [2, 23]: < 2 µg/mL

The next lines start with results.

recovery at 120 min, 1 μM ([1]; Caco-2, pH 7.4, Direction A→B) [%]	recovery at 120 min, 1 μM ([1]; Caco-2, pH 7.4, Direction B→A) [%]	efflux ratio at 120 min, 1 µM [1]	Papp A→B at 120 min, 1 μM [1] [×10⁻⁶ cm/s]	Papp B→A at 120 min, 1 μM [1] [×10⁻⁶ cm/s]	permeability class (Low/High absorption potential) at 120 min, 1 µM [1] [×10⁻⁶ cm/s]	solubility at 18 h [2, 4] [µg/mL]	solubility at 18 h [2, 5] [µg/mL]	solubility at 18 h [2, 6] [µg/mL]	solubility at 18 h [2, 7] [µg/mL]	solubility at 18 h [2, 8] [µg/mL]	solubility at 18 h [2, 9] [µg/mL]	solubility at 18 h [2, 10] [µg/mL]	solubility at 18 h [2, 11] [µg/mL]	solubility at 18 h [2, 12] [µg/mL]	solubility at 18 h [2, 13] [µg/mL]	solubility at 18 h [2, 14] [µg/mL]	solubility at 18 h [2, 15] [µg/mL]	solubility at 18 h [2, 16] [µg/mL]	Compound	Significant Efflux (Caco-2 cell monolayers)	also measured
42	53	3.1	7.52	23.4	> 1	< 2	< 2	< 2	< 2	< 2	228 (≈ 400 µM)	261 (≈ 457 µM)	327 (≈ 573 µM)	125 (≈ 219 µM)	1740 (≈ 3060 µM)	1780 (≈ 3120 µM)	5000 (≈ 8770 µM)	72 (≈ 126 µM)	O=C(Cc1cccc(OC(F)(F)F)c1)Nc1ccc(CCCCc2nnc(NC(=O)Cc3ccccc3)s2)nn1 [Compound 585]	Yes (efflux ratios being significant when greater than or equal to 3 when the Papp (B→A) was greater than or equal to 1×10^−6 cm/s)	solubility at 18 h [2, 17]: 1990 µg/mL (≈ 3490 µM); solubility at 18 h [2, 18]: 3940 µg/mL (≈ 6910 µM); solubility at 18 h [2, 19]: 1420 µg/mL (≈ 2490 µM); solubility at 18 h [2, 20]: < 2 µg/mL; solubility at 18 h [2, 21]: 192 µg/mL (≈ 336 µM); solubility at 18 h [2, 22]: < 2 µg/mL; solubility at 18 h [2, 23]: < 2 µg/mL
70	72	–	9.64	59.6	> 1	–	–	–	–	–	–	–	–	–	–	–	–	–	O=C(Cc1cccc(OC(F)(F)F)c1)Nc1ccc(CCCCc2nnc(NC(=O)Cc3ccccn3)s2)nn1 [Compound 670]	Yes (efflux ratios being significant when greater than or equal to 3 when the Papp (B→A) was greater than or equal to 1×10^−6 cm/s)	IC50 (P493-6 (myc "on") cells; P493-6 cells, 72 h, read-out: Cell prolif P493 72h): 0.03 µM

— patent US8604016B2, “Heterocyclic inhibitors of glutaminase” (Calithera Biosciences Inc., priority 2011, dated 2013)
